Source: PMC6713354, “Structural and biochemical studies of an NB-ARC domain from a plant NLR immune receptor” (PLoS ONE, 2019)

Assays:
[1] = molecular target: T1, NRC1 NB-ARC domain (Solanum lycopersicum, UniProt A1X877); assay: X-ray crystal structure, […] A (native); SeMet SAD map at […] A; details: co-purified ligand; nucleotide-binding pocket; E. coli-expressed protein; crystals at pH 4.5
T1 construct: NB-ARC domain, residues 150-494; E. coli Lemo21(DE3) (pOPIN-S3C, 6xHis-SUMO) or Sf9 cells (pOPIN-F, 6xHis); N-terminal tag cut with 3C protease; 346 residues in expressed construct; about 40 kDa monomer

[2] = molecular target: T2, NRC1 NB-ARC domain (Solanum lycopersicum, UniProt A1X877, D268N); assay: luciferase assay of nucleotide released by boiling, ADP converted to ATP with pyruvate kinase; assay type: binding; details: co-purified ligand, no ADP added; protein from Sf9 cells; Walker B mutant; no ATP detected
T2 construct: NB-ARC domain, residues 150-494; E. coli Lemo21(DE3) (pOPIN-S3C, 6xHis-SUMO) or Sf9 cells (pOPIN-F, 6xHis); N-terminal tag cut with 3C protease; 346 residues in expressed construct; about 40 kDa monomer

[3] = molecular target: T1, NRC1 NB-ARC domain; assay: as above; assay type: binding; details: co-purified ligand, no ADP added; protein from E. coli and from Sf9 cells; no ATP detected

T1 sequence (A1X877 entry or part of it): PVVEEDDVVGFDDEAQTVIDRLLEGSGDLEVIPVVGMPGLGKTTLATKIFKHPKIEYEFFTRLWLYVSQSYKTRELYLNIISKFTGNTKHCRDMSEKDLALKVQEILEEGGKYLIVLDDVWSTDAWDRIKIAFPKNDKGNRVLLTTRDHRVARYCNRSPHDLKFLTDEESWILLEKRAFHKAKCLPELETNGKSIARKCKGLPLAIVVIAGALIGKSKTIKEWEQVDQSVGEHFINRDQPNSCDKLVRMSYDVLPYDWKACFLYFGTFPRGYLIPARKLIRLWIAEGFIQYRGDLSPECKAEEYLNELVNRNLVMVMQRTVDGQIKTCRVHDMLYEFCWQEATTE
T2 sequence (A1X877 entry or part of it D268N): as the sequence (A1X877 entry or part of it) above, with D119N counted along it

`Nc1ncnc2c1ncn2[C@@H]1O[C@H](COP(=O)(O)OP(=O)(O)O)[C@@H](O)[C@H]1O` [ADP] was tested, and the “X-ray crystal structure, 2.5 A (native); SeMet SAD map at 3.03 A” value [1] was “allowed us to unambiguously position a molecule of ADP, and the side-chains of interacting residues”, the “% ADP occupancy” value [2] was “NRC1 NB-ARC^D268N, a mutant designed to abolish ATPase activity, also co-purified with ADP” and the “% ADP occupancy” value [3] was “all three NRC1 NB-ARC proteins co-purified with ADP with high occupancy”.
